Read-outs that look alike come from different tables or passages of the source.
Experiments:
mice (Swiss strain) [1] = test: Acute toxicity, LD50 by oral route in mice (class D derivatives); format: in vivo; conditions: mouse, suspension in 2 % carboxymethylcellulose, observation 7 days
Text: The letal doses 50 (LD50) by oral route (suspension in 2 % carboxymethylcellulose) are reported hereinbelow: TABLE 6

[2] = test system: acetylcholinesterase (AchE); format: in vivo, Wistar male rats; conditions: rat
mouse [3] = test: Spontaneous motility, Dews method modified according to Carminati (class D derivatives); format: in vivo; conditions: mouse (Swiss)
Text: (§1) The Dews method was used, modified according to Carminati (Arch. int. Pharmacodyn. et Thér 181, 68,1969).

SWISS male mice [4] = test: Electroencephalographic activity (class D derivatives); format: in vivo; conditions: 3mg/kg/os, in the course of the successive 30 minutes
rabbit [5] = test: Effect on the duration of the curarization by succinylcholine (class D derivatives); format: in vivo; conditions: anesthetized rabbit, 0.5 mg intravenous
[6] = Pharmacokinetics, plasma level by HPLC (MGF001); format: in vivo, Wistar male rats; conditions: rat, 2mg/kg/os
Protocol: (§2) The presence of said substance in plasma was detected by HPLC.
(§3) With the optimized method the detection limit was of 0.15 µg per ml of plasma.

mice (Swiss strain) [7] = test: Acute toxicity, LD50 by oral route in mice (class A derivatives); format: in vivo; conditions: mouse, suspension in 2 % carboxymethylcellulose, observation 7 days
Text: The letal doses 50 (LD50) by oral route (suspension in 2 % carboxymethylcellulose) are reported herinbelow: TABLE 1

[8] = test system: acetylcholinesterase (AchE); format: in vivo, Wistar male rats; conditions: rat; remark: listed apart in the source
mouse [9] = test: Spontaneous motility, Dews method modified according to Carminati (class A derivatives); format: in vivo; conditions: mouse (Swiss), oral, starting from minimum doses of 4-6 mg/kg
Text: as §1

SWISS male mice [10] = test: Electroencephalographic activity (class A derivatives); format: in vivo; conditions: 6 mg/kg/os, in the course of the successive 30 minutes
rabbit [11] = test: Effect on the duration of the curarization by succinylcholine (class A derivatives); format: in vivo; conditions: anesthetized rabbit, 0.8 mg/kg intravenous
Text: . […] By using the same method (male rabbits of the tawny strain of Bourgogne; […]

[12] = Pharmacokinetics, plasma level by HPLC (MGS101); format: in vivo, Wistar male rats; conditions: rat, 6 mg/kg/os
Protocol: as §2, §3

motor activity [13] = test: Antagonistic effect on the stimulating effect of scopolamine (class B derivatives); format: in vivo; conditions: scopolamine 1 mg/kg
Protocol: At the dose of 1 mg/kg, scopolamine produces an evident stimulating effect (100% increase in motor activity).
This effect is countered by the oral administration of 2.5 mg of the above mentioned compounds.

motor activity [14] = test: Antagonist effect on the stimulating effect of scopolamine (class C derivatives); format: in vivo; conditions: scopolamine 1 mg/kg
Protocol: This is countered by the oral administration of 2.5 mg of ES001, ES002, ES003.

motor activity [15] = test: Antagonistic effect on the stimulating effect of scopolamine (class F derivatives); format: in vivo; conditions: scopolamine 1 mg/kg
Protocol: At the dose of 1 mg/kg the scopolamine produce a clear stimulating effect (100 % of motor activity increase). This is countered by the oral administration of 2.5 mg of the three products MGR001, MGR002 and MGR003.

[16] = acetylcholinesterase inhibition 20 minutes after oral administration, limits in brackets

With `CNCCCCCCCNC(=O)Oc1ccc2c(c1)[C@]1(C)CCN(C)[C@@H]1N2C` [MGF001, (3a S-cis) - 1,2,3,3a,8,8a hexahydro - 1,3a,8 - trimethyl pyrrol [2,3-b]-indol-5-ol-N-methyl-aminoheptyl carbamate ester] the LD50 per os (mice (Swiss strain) [1]) was 461.44 ± 51.33 mg/kg, the “INHIBITION % OF ACETYLCHOLINESTERASE (AchE) after 60 minutes brain” value ([2]; 2 mg/kg/OS) was 46.38 ± 4.12% and the “INHIBITION % OF ACETYLCHOLINESTERASE (AchE) after 60 minutes serum” value ([2]; 2 mg/kg/OS) was 42.6 ± 5.28%. For the same compound, the “INHIBITION % OF ACETYLCHOLINESTERASE (AchE) after 120 minutes brain” value ([2]; 2 mg/kg/OS) was 25.45 ± 2.18%, the “INHIBITION % OF ACETYLCHOLINESTERASE (AchE) after 120 minutes serum” value ([2]; 2 mg/kg/OS) was 19.83 ± 4.27% and the “ED50 (mg/kg/os) brain” value [2, 16] was 1.83 (1.14 - 2.94) mg/kg/os. The “ED50 (mg/kg/os) serum” value [2, 16] was 1.90 (1.13 - 3.20) mg/kg/os, the “inhibitory acetylcholinesterase activity (in words)” value ([2]; oral, 1-2 mg/kg) was “clear inhibitory dose-dependent and reversible” and the “oral dose causing a significant decrease of the spontaneous motility” value (mouse [3]) was 2.5 to 5 mg/kg. The “modifications of the electroencephalogram” value (SWISS male mice [4]) was “increase of the amplitude and a decrease of the frequency of the electroencephalogram”, the “curare effect of succinylcholine compared with physostigmine” value (rabbit [5]) was “prolonged in the same way as physostigmine the curare effect of succinylcholine” and the “concentration in plasma after 20 minutes” value [6] was 11480 ± 2230 ng/mL. The “concentration in plasma after 120 minutes” value [6] was 28410 ± 8400 ng/mL, the “concentration in plasma after 12 hours” value [6] was 10640 ± 5460 ng/mL and the “maximum peak in plasma” value [6] was 47.60 ± 9.12 µg/mL. The “time of the maximum peak in plasma” value [6] was 90 '.

With `CC[C@H](C)[C@H](NC(=O)Oc1ccc2c(c1)[C@]1(C)CCN(C)[C@@H]1N2C)C(=O)O` [MGS101] the LD50 per os (mice (Swiss strain) [7]) was 332.8 ± 6.20 mg/kg, the “INHIBITION % OF ACETYLCHOLINESTERASE (AchE) after 60 minutes brain” value ([8]; 3.5 mg/kg/OS) was 38.71 ± 6.12% and the “INHIBITION % OF ACETYLCHOLINESTERASE (AchE) after 60 minutes serum” value ([8]; 3.5 mg/kg/OS) was 31.6 ± 4.25%. The “INHIBITION % OF ACETYLCHOLINESTERASE (AchE) after 120 minutes serum” value ([8]; 3.5 mg/kg/OS) was 20.12 ± 2.40%, the “ED50 (mg/kg/os) brain” value [8, 16] was 2.89 (1.83 - 4.59) mg/kg/os and the “ED50 (mg/kg/os) serum” value [8, 16] was 2.89 (1.82 - 4.49) mg/kg/os. The “inhibitory cerebral and serumal acetylcholinesterase activity (in words)” value ([8]; oral, 1.5 to 4.5 mg/kg) was “clear inhibitory dose-dependent and reversible”, the “decrease of the spontaneous motility (on average)” value (mouse [9]) was about -30% and the “modifications of the electroencephalogram” value (SWISS male mice [10]) was “increase of the amplitude and a decrease of the frequency of the electroencephalogram”. The “effect on the curarization by succinylcholine compared with physostigmine” value (rabbit [11]) was “induced the same anticholinesterase effect of physostigmine”, the “concentration in plasma after 20 minutes” value [12] was 15910 ± 4210 ng/mL and the “concentration in plasma after 24 hours” value [12] was 4310 ± 1980 ng/mL. For the same compound, the “concentration in plasma at the twelfth hour” value [12] was 14220 ± 3120 ng/mL, the “maximum peak in plasma” value [12] was 33.81 ± 6.15 µg/mL and the “time of the maximum peak in plasma” value [12] was 90 '.

With `CN1[C@@H]2C[C@@H](OC(=O)[C@H](CO)c3ccccc3)C[C@H]1[C@@H]1O[C@@H]12` [scopolamine, reference compound] the “increase in motor activity” value (motor activity [13]) was 100%, the “increase in motor activity” value (motor activity [14]) was 100% and the motor activity increase (motor activity [15]) was 100%.

Source: patent publication EP0513703A2, “Carbamate esters of eseroline having anticholinesterase activity, a process for their preparation and relative pharmaceutical compositions containing them as the active principle” (priority 1991, dated 1992)
